# Measurements from article PMC11362529, “Exploring the neuroprotective potential of Nrf2-pathway activators against annonacin toxicity” (Scientific Reports, 2024).
# Experiments:
# Assay type in all cases: cell-based, human
# LUHMES cells [1] = assay: Mitochondrial membrane potential (JC-1 probe); conditions: CCCP 50 µM, positive control
# Experimental: In PLO/FN-coated 24-well microplates, cells were simultaneously incubated with 20 nM of annonacin and the selected concentrations of Nrf2-pathway activators, in glucose-reduced medium, over the course of 24 h. After that, the medium was removed and cells were washed once with warm HBSS, followed by incubation with 5 µM JC-1 solution in HBSS, for 20 min at 37 °C. For the positive control, the mitochondrial oxidative phosphorylation uncoupler, CCCP, was used at a concentration of 50 µM. After the incubation period, cells were washed with HBSS, and fresh HBSS was added to keep the cells viable during live-image acquisition. Image acquisition was done on a fluorescence microscope Leica-DFC9000GTC (Leica, Frankfurt, Germany). Environmental conditions were kept steady at 37 °C with a 5% CO2 atmosphere during the entire acquisition time. Ten to fifteen images from different fields of view, dispersed across triplicates, were acquired with 200 × magnification (20 × objective, 10 × intermediate magnification), using the same image acquisition parameters for all conditions. The fluorescence of JC-1 monomers was captured on the green channel (λ Ex/Em = 475/519 nm) and the fluorescence of JC-1 aggregates was capture on the red channel (λ Ex/Em = 555/594 nm). Quantification of FI (fluorescence intensities) of JC-1 monomeric and aggregated forms was done using the ImageJ software (http://rsb.info.nih.gov/ij/, ImageJ bundled with 64-bit Java 8). Briefly, TIFF exported images were submitted to background subtraction using the rolling ball method with a radius of 50 pixels. Channel-specific thresholds were applied to all images to define the ROI (region of interest) and FI were measured as integrated density. Data were reported as the ratio between JC-1 aggregates and monomers, obtained by dividing the FI of the JC-1 aggregated form by the FI of the monomeric form.
# LUHMES cells [2] = assay: Protective effects against annonacin toxicity, calcein viability assay; conditions: with 20 nM annonacin, glucose-reduced medium, 48 h; 40 μM Ki 696–2, 1 μM HPP-D, 15 μM ezetimibe, 4 μM licochalcone A; most protective or highest non-toxic concentration for the others
# Experimental: The calcein AM green dye (Thermo Fisher Scientific) was diluted in DMSO to obtain a 1 mM stock solution. The stock solution was further diluted in HBSS (Hanks' balanced salt solution), immediately before incubation, to achieve a final working concentration of 1 μM in the well. The medium was removed, the cells were washed once with warm HBSS, and 200 µl of calcein working solution was added to each well. For background correction, 200 µl of calcein working solution was added to a well without cells (background control). After 30 min of incubation at 37 °C, the calcein solution was removed and the cells were washed once with HBSS. Cells were lysed in a 200 µl volume of 1% Triton™ X-100 in PBS (phosphate buffered saline) and the lysate transferred to a 96‐well black plate for the readout. The fluorescence signal was measured on a FLUOstar® Omega plate reader (BMG LabTech, Ortenberg, Germany) at λ Ex/Em = 485/530 nm and data was analyzed with the MARS data analysis software (BMG LabTech). For background correction, we subtracted the background control signal from the measured values of all experimental conditions. Data were expressed as percentage of viability relative to the control (DMSO-treated) condition.
# For pharmacological treatments, we acquired several previously described Nrf2-pathway activators: ezetimibe (Cayman), licochalcone A (MedChem Express, New Jersey, NJ, USA), bardoxolone methyl, saracatinib and PP2 (AbMole BioScience Inc., Houston, TX, USA). The enantiomers Ki 696–1 and Ki 696–2, and the compound HPP-D were kindly provided by Orion Pharma (Espoo, Finland). All compounds were dissolved in DMSO and stored in small aliquots at -80 °C to avoid freeze–thaw cycles. Compound general toxicity was determined on PLO/FN double-coated 48-well microplates as follows: after 4 days of differentiation, LUHMES cells were incubated with the different Nrf2-pathway activators at concentrations ranging from 1 nM to 100 µM, for 96 h. The cell viability was assessed by calcein assay on day 8 of differentiation. Non-toxic concentrations of the Nrf2-pathway activators were selected and used in the pharmacological treatments, in combination with 20 nM of annonacin, in glucose-reduced differentiation medium, over a period of 48 h, similar to an in vitro model reported before. The protective effects of Nrf2-pathway activators against annonacin toxicity were determined in terms of cell viability with the calcein assay.
# LUHMES cells [3] = assay: Compound general toxicity, calcein viability assay; conditions: 1 nM to 100 μM, 96 h, differentiation medium, calcein fluorescence
# Experimental: We used LUHMES (lund human mesencephalic) cells derived from human embryonic ventral mesencephalic cells by conditional immortalization (Tet-off v-myc overexpression). Cells were grown in monolayer at 37 °C in a humidified atmosphere of 5% CO2, in 75 cm^2 tissue culture flasks coated with 0.05 µg/ml PLO (poly-L-ornithine). Cells were maintained in growth medium of DMEM/F12 (Sigma-Aldrich, St. Louis, MO, USA), supplemented with 1% N-2 supplement (Gibco, Thermo Fisher Scientific, Waltham, MA, USA) and 0.04 µg/ml basic fibroblast growth factor (PreproTech EC, Waltham, MA, USA), and routinely dissociated with trypsin–EDTA solution and subcultured when reaching 70% confluence to avoid overgrowth. […]
# The calcein AM green dye (Thermo Fisher Scientific) was diluted in DMSO to obtain a 1 mM stock solution. […] Cells were lysed in a 200 µl volume of 1% Triton™ X-100 in PBS (phosphate buffered saline) and the lysate transferred to a 96‐well black plate for the readout. The fluorescence signal was measured on a FLUOstar® Omega plate reader (BMG LabTech, Ortenberg, Germany) at λ Ex/Em = 485/530 nm and data was analyzed with the MARS data analysis software (BMG LabTech). For background correction, we subtracted the background control signal from the measured values of all experimental conditions. Data were expressed as percentage of viability relative to the control (DMSO-treated) condition. […]
# LUHMES cells [4] = assay: Mitochondrial superoxide (MitoSOX / calcein AM); conditions: 100 µM H2O2, 2 h, positive control
# Experimental: As before, cells seeded on PLO/FN-coated 24-well microplates were treated for 48 h with 20 nM of annonacin and the selected concentrations of Nrf2-pathway activators, in glucose-reduced medium. After this period, the medium was removed, and the cells were washed once with warm HBSS before being simultaneously incubated with 0.5 µM of MitoSOX™ red (Thermo Fisher Scientific) and 1 µM of calcein AM for 30 min at 37 °C. Next, the cells were again washed with HBSS and fresh HBSS was added to maintain cell viability during live-image acquisition on a fluorescence microscope Leica-DFC9000GTC (Leica). The cells were kept under controlled environmental conditions, and similar image acquisition parameters were used for all images, as explained before. We acquired ten to fifteen images per condition, from different view fields across triplicates, with a 200 × magnification (20 × objective, 10 × intermediate magnification). Quantification of MitoSOX and calcein AM FI was performed using the ImageJ software. Briefly, TIFF exported images were submitted to background subtraction using the rolling ball method with a radius of 50 pixels. Channel-specific thresholds were applied to all images to define the ROI, and the FI were measured as integrated density and reported as arbitrary units (a. u.). The MitoSOX FI was normalized to cell viability estimated by calcein AM FI, to obtain a MitoSOX FI/calcein FI ratio. The average ratio of the different view fields per experimental condition was taken and reported as fold change relative to the control (DMSO-treated) condition.
smiles,measurement,setting,value
N#CC(C#N)=NNc1cccc(Cl)c1 [CCCP],mitochondrial membrane potential (JC-1 aggregates),LUHMES cells [1],drastically reduced the presence of JC-1 aggregates
CN1CCN(CCOc2cc(OC3CCOCC3)c3c(Nc4c(Cl)ccc5c4OCO5)ncnc3c2)CC1 [saracatinib],reduction of annonacin toxicity,LUHMES cells [2],no statistical differences
CC(C)(C)n1nc(-c2ccc(Cl)cc2)c2c(N)ncnc21 [PP2],reduction of annonacin toxicity,LUHMES cells [2],no statistical differences
"COC(=O)[C@]12CCC(C)(C)C[C@H]1[C@H]1C(=O)C=C3[C@@]4(C)C=C(C#N)C(=O)C(C)(C)[C@@H]4CC[C@@]3(C)[C@]1(C)CC2 [bardoxolone, bardoxolone methyl]",impact on viability of differentiated LUHMES neuronal cells (compound toxicity),LUHMES cells [3],extremely neurotoxic at concentrations above the nanomolar range
OO [H2O2],MitoSOX fluorescence intensity,LUHMES cells [4],increased the MitoSOX fluorescence intensity
